According to article PMC5511861, “DS16570511 is a small-molecule inhibitor of the mitochondrial calcium uniporter” (Cell Death Discovery, 2017):

Experiments:
[1] = target: T1, mitochondrial calcium uniporter (Homo sapiens, UniProt Q8NE86); assay: Ca2+ uptake of isolated mitochondria from HEK293A cells (aequorin luminescence); assay type: biochemical; set-up: isolated mitochondria from HEK293A cells were used; endogenous in cells; host or cells: mitochondria isolated from HEK293A cells stably expressing mitochondria-targeted aequorin; settings: 100 μM Ca2+, 5 min preincubation; read-out: IC50, inhibition of Ca2+ uptake of isolated mitochondria from HEK293A cells
T1 sequence (Q8NE86 51-351): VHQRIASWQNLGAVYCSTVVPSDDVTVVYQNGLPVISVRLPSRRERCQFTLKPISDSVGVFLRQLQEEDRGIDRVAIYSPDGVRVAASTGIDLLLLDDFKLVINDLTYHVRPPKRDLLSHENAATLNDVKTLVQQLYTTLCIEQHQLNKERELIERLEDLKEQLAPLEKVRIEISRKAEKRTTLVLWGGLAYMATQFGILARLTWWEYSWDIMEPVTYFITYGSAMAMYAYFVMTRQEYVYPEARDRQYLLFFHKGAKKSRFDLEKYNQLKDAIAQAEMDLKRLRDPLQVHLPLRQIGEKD
T1 sequence (Q9H4I9 48-107 partner limits assumed): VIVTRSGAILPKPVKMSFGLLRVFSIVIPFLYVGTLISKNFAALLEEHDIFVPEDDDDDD
Experimental: Mitochondrial Ca^2+ uptake activity is regulated by cytosolic protein kinase signaling,[19] raising the possibility that HTS hits contained indirect inhibitors of the uniporter, such as inhibitors of cytosolic signaling. To examine the direct inhibitory effect of the compounds on the mitochondrial Ca^2+ uptake, isolated mitochondria from HEK293A cells were used. Ca^2+ uptake of the isolated mitochondria was observed as a rapid increase in the luminescence level after application of 100 μM Ca^2+ (Figure 2a).
Figure 2 DS16570511 inhibits Ca^2+ uptake in isolated mitochondria from HEK293A cells. (a) Representative raw data of Ca^2+ uptake in isolated mitochondria. (b) Effect of DS16570511 or Ru360 on mitochondrial Ca^2+ uptake. The area under the curve of temporal aequorin activities is used for calculation of inhibitory activities. Inhibition 0 or 100% is defined as a value of […], respectively. Data are mean with S.E.M. from three independent samples.
To monitor Ca^2+ uptake activity of isolated mitochondria, mitochondria were prepared from the cells (1×10^8 cells) stably expressing mitochondria-targeted aequorin by using a mitochondria isolation kit. […] The luminescence levels were detected as described above.

rat perfused heart = assay: Cardiac functions (heart rate, contractility) in rat isolated perfused heart
Experimental: We then investigated the effect of DS16570511 on cardiac functions in the perfused heart. We observed that heart rate was unaffected by DS16570511 in the range of 3–30 μM (Figure 7a). […] The increase of contractility was diminished by washout of the drug (Figure 7b), showing that the cardiac effect of DS16570511 is reversible.
Figure 7 Effects of DS16570511 on cardiac functions. (a) Effect of DS16570511 on heart rate in rat perfused heart. Data are mean with S.E.M. from more than four independent samples. (b) Representative data showing acute and reversible effect of DS16570511 on contractility. (c) Effect of DS16570511 on contractility in rat perfused heart. Plotted are values of pretreatment and 5 min after treatment of 10 or 30 μM DS16570511.
The hearts were rapidly excised from 9-week-old male Wistar rats and perfused at 37 °C with Krebs-Ringer perfusion buffer (127.2 mM NaCl, 4.7 mM KCl, 2.5 mM CaCl2, 1.2 mM KH2PO4, 1.2 mM MgSO4, 25 mM NaHCO3 and 5.5 mM glucose (pH 7.4)) equilibrated with 95% O2/5% CO2. A balloon was inserted through the left atrium into the left ventricle. Heart rate and contractility were continuously recorded with a data acquisition system (PowerLab, ADInstruments, Bella Vista, NSW, Australia).

[2] = tested on: membrane potential of pig heart mitochondria; assay: Mitochondrial membrane potential assay (JC-10) in pig heart mitochondria; assay type: biochemical; settings: JC-10, 5 min incubation
Text: Next we analyzed the mechanism of action of DS16570511. The previous studies implicated two possible inhibitory mechanisms for the mitochondrial Ca^2+ uptake: (1) direct blockade of the calcium uniporter and (2) disruption of the membrane potential.[20],[21] Mitochondrial Ca^2+ uptake is mediated by electrical potential across the mitochondrial inner membrane, which is generated by the oxidative phosphorylation system. […] To examine effects on the mitochondrial membrane potential, fluorescent indicator JC-10 was used in mitochondria from pig heart.
(a) Effect of FCCP on Ca^2+ uptake of pig heart mitochondria. […] Relative membrane potential 0 or 100% is defined as value of 1 μM FCCP-treated mitochondria or vehicle-treated mitochondria, respectively. Data are mean with S.E.M. from three (a) or four (b) independent samples.
Pig heart mitochondria were prepared as described above and suspended in the swelling buffer containing 1 μM JC-10. The protein concentration of the solution was 5 mg/ml. Five minutes after incubation of the mitochondria with DS16570511 at room temperature, fluorescence intensities were measured by a FlexStation 3 (Molecular Devices, LLC, Sunnyvale, CA, USA) using the green channel (excitation/emission wavelength: 485/538 nm) or the red channel (excitation/emission wavelength: 485/612 nm).

## Cc1onc(-c2c(Cl)cccc2Cl)c1CNc1cccc(C(=O)c2cn(CCCC(=O)O)c3ccccc23)c1 [DS16570511]
[1]
  IC50: 860 nM
Rat perfused heart; 3–30 μM
  effect on heart rate: unaffected
Rat perfused heart; 10 or 30 μM, 5 min after treatment
  effect on cardiac contractility: increased cardiac contractility
Rat perfused heart; washout of the drug
  reversibility of the cardiac effect on washout: reversible
[2]
  effect on mitochondrial membrane potential: not reduced
